Assay results reported in the NIST ThermoML archive (doi:10.1016/j.jct.2016.05.008).
± gives the expanded uncertainty stated by the source.

Columns and labels:
[1] = Crystal; DTA
[2] = Molar enthalpy of transition or fusion; settings: Crystal; DSC

| Normal melting temperature [1] [°C] | Molar enthalpy of transition or fusion [2] [kcal/mol] | SMILES |
| --- | --- | --- |
| 54.00 ± 0.53 | 10.7 ± 0.478 | CCCCCCCCCCCCCC(=O)O [tetradecanoic acid] |
| 62.00 ± 0.53 | 12.6 ± 0.55 | CCCCCCCCCCCCCCCC(=O)O [hexadecanoic acid] |
| 27.80 ± 0.53 | 14.7 ± 0.645 | CCCCCCCCCCCCCCCCCC [octadecane] |
